pEC50: −log10 of the molar value. Values after ≈ are worked out from the molar mass of the structure shown. Active and inactive are the calls of the source. No cut-off for these calls is given here.
Tests used:
[1] = Plasma concentration in hyperglycemic KK/Ta mouse at 30 mg/kg/day, po administered through diet for 3 days measured on day 3 post last dose; assay type: ADME, organism-based
Mus musculus [2] = assay: Toxicity in hyperglycemic KK/Ta mouse assessed as body weight gain at 30 mg/kg/day, po administered through diet for 3 days relative to control; assay type: organism-based; details: in vivo, 72 h
Mus musculus [3] = assay: Glucose-lowering effect in hyperglycemic KK/Ta mouse assessed as reduction in plasma glucose level at 30 mg/kg/day, po administered through diet for 3 days relative to control; assay type: functional; set-up: scale not given: the % may be the effect or the level left
[4] = molecular target: T1, Peroxisome proliferator-activated receptor delta (Homo sapiens) (UniProt Q03181); assay: Agonist activity at PPARdelta (unknown origin) at 10 uM
T1 sequence (whole entry): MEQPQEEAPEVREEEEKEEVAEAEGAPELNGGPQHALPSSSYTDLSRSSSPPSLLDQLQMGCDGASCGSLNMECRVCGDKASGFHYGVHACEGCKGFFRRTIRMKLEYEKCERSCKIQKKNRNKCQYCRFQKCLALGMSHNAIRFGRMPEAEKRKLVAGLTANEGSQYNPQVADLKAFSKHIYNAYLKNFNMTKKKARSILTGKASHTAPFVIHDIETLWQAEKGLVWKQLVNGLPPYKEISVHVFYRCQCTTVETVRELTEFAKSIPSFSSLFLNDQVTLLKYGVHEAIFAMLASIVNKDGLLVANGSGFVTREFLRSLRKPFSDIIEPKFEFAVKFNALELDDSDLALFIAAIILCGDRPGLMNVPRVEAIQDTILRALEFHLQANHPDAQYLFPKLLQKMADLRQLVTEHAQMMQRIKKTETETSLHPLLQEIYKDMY

[5] = molecular target: T2, Peroxisome proliferator-activated receptor gamma (Homo sapiens, UniProt P37231); assay: Agonist activity at recombinant human GAL4-DBD fused PPARgamma LBD expressed in COS7 cells after 24 hrs by luciferase reporter gene assay; assay type: cell-based
T2 sequence (P37231 whole entry): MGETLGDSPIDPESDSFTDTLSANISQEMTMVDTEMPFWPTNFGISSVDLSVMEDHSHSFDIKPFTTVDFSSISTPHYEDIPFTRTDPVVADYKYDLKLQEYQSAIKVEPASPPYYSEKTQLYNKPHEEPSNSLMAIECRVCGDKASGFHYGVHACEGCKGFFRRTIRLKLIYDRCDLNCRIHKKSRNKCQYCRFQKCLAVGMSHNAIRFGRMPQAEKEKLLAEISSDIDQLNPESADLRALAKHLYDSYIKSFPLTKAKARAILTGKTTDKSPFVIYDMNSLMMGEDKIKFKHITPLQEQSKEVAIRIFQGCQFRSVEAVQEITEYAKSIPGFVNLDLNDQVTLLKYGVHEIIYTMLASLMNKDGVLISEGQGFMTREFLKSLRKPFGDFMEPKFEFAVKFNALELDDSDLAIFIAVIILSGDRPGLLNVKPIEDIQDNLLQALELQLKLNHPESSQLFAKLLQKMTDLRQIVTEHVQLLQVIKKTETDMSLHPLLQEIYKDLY

[6] = molecular target: T3, Peroxisome proliferator-activated receptor gamma (Homo sapiens) (UniProt P37231); assay: Agonist activity at recombinant human GAL4-DBD fused PPARgamma LBD expressed in COS7 cells at 10 uM after 24 hrs by luciferase reporter gene assay relative to rosiglitazone; assay type: cell-based
T3 sequence (whole entry): T2 sequence (P37231 whole entry)

[7] = molecular target: T4, Peroxisome proliferator-activated receptor alpha (Homo sapiens) (UniProt Q07869); assay: Agonist activity at recombinant human GAL4-DBD fused PPARalpha LBD expressed in COS7 cells at 10 uM after 24 hrs by luciferase reporter gene assay relative to 2-(4-tert-Butylphenoxy)-3-[4-[2-[(4-pyridin-2-ylbenzoyl)amino]ethoxy]; assay type: cell-based
T4 sequence (whole entry): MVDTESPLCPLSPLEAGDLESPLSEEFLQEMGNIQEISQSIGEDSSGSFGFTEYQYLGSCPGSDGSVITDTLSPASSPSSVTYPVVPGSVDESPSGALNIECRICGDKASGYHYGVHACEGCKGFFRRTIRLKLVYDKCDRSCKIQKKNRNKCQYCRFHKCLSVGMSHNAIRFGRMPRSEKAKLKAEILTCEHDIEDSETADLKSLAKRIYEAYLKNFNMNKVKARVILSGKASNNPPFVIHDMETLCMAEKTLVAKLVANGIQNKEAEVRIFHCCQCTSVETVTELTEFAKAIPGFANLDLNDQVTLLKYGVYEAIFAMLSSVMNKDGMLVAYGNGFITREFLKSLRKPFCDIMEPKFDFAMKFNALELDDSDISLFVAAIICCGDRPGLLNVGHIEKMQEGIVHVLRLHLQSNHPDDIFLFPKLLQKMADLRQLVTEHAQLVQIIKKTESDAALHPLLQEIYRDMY

[8] = 1-octanol/PBS distribution co-efficient, log D of the compound at […] at pH 7.4 after 30 mins by HPLC-MS/MS analysis; assay type: physicochemical
[9] = Metabolic stability in human liver microsomes after 0.5 hrs; assay type: ADME, microsome; details: read-out: Stability
[10] = Metabolic stability in rat liver microsomes after 0.5 hrs; assay type: ADME, microsome; details: read-out: Stability
[11] = molecular target: T5, Peroxisome proliferator-activated receptor alpha (Homo sapiens, UniProt Q07869); assay: Agonist activity at recombinant human GAL4-DBD fused PPARalpha LBD expressed in COS7 cells after 24 hrs by luciferase reporter gene assay; assay type: cell-based
T5 sequence (Q07869 whole entry): T4 sequence (whole entry)

[12] = Aqueous thermodynamic solubility of the compound in pH 6.8 solution up to 4 hrs by HPLC-UV analysis; assay type: physicochemical; details: read-out: Therm_solubility
Rattus norvegicus [13] = assay: Glucose-lowering effect in Zucker diabetic fatty rat assessed as reduction in plasma glucose level at 3 mg/kg, po administered once daily for 14 days measured on day 14 post last dose relative to control; assay type: functional; set-up: scale not given: the % may be the effect or the level left
Rattus norvegicus [14] = assay: Toxicity in Zucker diabetic fatty rat assessed as body weight gain at 3 mg/kg, po administered once daily for 14 days relative to control; assay type: organism-based; details: in vivo, 336 h
[15] = Cmax in Zucker diabetic fatty rat at 3 mg/kg, po dosed once daily for 14 days and followed by additional administeration on day 15; assay type: ADME, organism-based; set-up: dose 3 mg/kg, route oral; details: in vivo
[16] = Tmax in Zucker diabetic fatty rat at 3 mg/kg, po dosed once daily for 14 days and followed by additional administeration on day 15; assay type: ADME, organism-based; details: in vivo
[17] = AUC (0 to 24 hrs) in Zucker diabetic fatty rat at 3 mg/kg, po dosed once daily for 14 days and followed by additional administeration on day 15; assay type: ADME, organism-based; set-up: dose 3 mg/kg, time < 24 hr, route oral; details: in vivo
[18] = Metabolic stability in cynomolgus monkey liver microsomes after 0.5 hrs; assay type: ADME, Macaca fascicularis, microsome; details: read-out: Stability
[19] = Cmax in cynomolgus monkey at 3 mg/kg, po by LC-MS/MS analysis; assay type: ADME, organism-based, Macaca fascicularis; set-up: dose 3 mg/kg, route oral; details: in vivo
[20] = Tmax in cynomolgus monkey at 3 mg/kg, po by LC-MS/MS analysis; assay type: ADME, organism-based, Macaca fascicularis; details: in vivo
[21] = Half life in cynomolgus monkey at 3 mg/kg, po by LC-MS/MS analysis; assay type: ADME, organism-based, Macaca fascicularis; details: in vivo
[22] = AUClast in cynomolgus monkey at 3 mg/kg, po by LC-MS/MS analysis; assay type: ADME, organism-based, Macaca fascicularis; set-up: dose 3 mg/kg, route oral, time 0 - last; details: in vivo
[23] = Oral bioavailability in cynomolgus monkey at 3 mg/kg by LC-MS/MS analysis; assay type: ADME, organism-based, Macaca fascicularis; details: in vivo
[24] = Clearance in cynomolgus monkey at 1 mg/kg, iv by LC-MS/MS analysis; assay type: ADME, organism-based, Macaca fascicularis; details: in vivo
[25] = Volume of distribution at steady state in cynomolgus monkey at 1 mg/kg, iv by LC-MS/MS analysis; assay type: ADME, organism-based, Macaca fascicularis; details: in vivo, read-out: Vdss

Row | SMILES | concentration at 72 h [1] | Activity (Mus musculus [2]) | Activity (Mus musculus [3]) | Activity [4] | pEC50 [5] | Emax [6] | Emax [7] | logD at 0.5 h [8] | remaining at 0.5 h [9] | pEC50 [11] | solubility thermodynamic at 4 h [12] | also measured
1 | Cl.Cn1c(COc2cccc(C(=O)O)c2)nc2ccc(Oc3cccc(C(F)(F)F)c3)cc21 | 90 ng/mL | 3.8% | 45.1% | inactive | 7.64 | 81% | 56% | 2.8 | 85% |  |  | 
2 | Cn1c(COc2cccc(C(=O)O)c2)nc2ccc(Oc3cc(F)ccc3F)cc21 | 700 ng/mL | 3.3% | 51.2% |  | 6.87 | 79% | 36% | 1.9 | 98% | < 5.00 | 5.7 µg/mL (≈ 13.9 µM) | remaining at 0.5 h [10]: 95%; Activity (Rattus norvegicus [13]): 61.2%; Activity (Rattus norvegicus [14]): 9.5%; Cmax [15]: 520 ng/mL; Tmax [16]: 2 h; AUC at 24 h [17]: 3870 ng·h/mL; remaining at 0.5 h [18]: 100%; Cmax [19]: 5630 ng/mL; Tmax [20]: 1 h; half-life [21]: 16.1 h; AUC(0-t) [22]: 40900 ng·h/mL; bioavailability [23]: 65%; clearance [24]: 0.8 mL/min/kg; Vd [25]: 0.39 L/kg
3 | Cn1c(COc2cccc(C(=O)O)c2)nc2ccc(Oc3ccc(Cl)cc3)cc21 |  | 4.1% | 34.4% | inactive | 6.90 | 62% | 8% | 2.6 |  | < 5.00 | 2 µg/mL (≈ 4.89 µM) | 
4 | COc1cccc(Oc2ccc3nc(COc4cccc(C(=O)O)c4)n(C)c3c2)c1 |  |  |  | inactive | 6.63 | 92% | 30% | 1.8 | 68% | < 5.00 | 5.4 µg/mL (≈ 13.4 µM) | 
5 | Cn1c(COc2cccc(C(=O)O)c2)nc2ccc(Oc3cccc(OC(F)(F)F)c3)cc21 | 370 ng/mL | 5.3% | 41.9% | inactive | 6.95 | 69% | 17% | 3.3 | 98% | < 5.00 | 0.9 µg/mL (≈ 1.96 µM) | 
6 | Cc1cc(F)ccc1Oc1ccc2nc(COc3cccc(C(=O)O)c3)n(C)c2c1 | 190 ng/mL | 2.8% | 54.7% |  | 7.66 | 66% | 19% | 2.5 | 59% | < 5.00 | 1.7 µg/mL (≈ 4.18 µM) | remaining at 0.5 h [10]: 47%; Activity (Rattus norvegicus [13]): 22%; Activity (Rattus norvegicus [14]): 11.9%; Cmax [15]: 42 ng/mL; Tmax [16]: 4 h; AUC at 24 h [17]: 420 ng·h/mL
7 | COc1ccc(Oc2ccc3nc(COc4cccc(C(=O)O)c4)n(C)c3c2)cc1 |  |  |  | inactive | 6.51 | 71% | 7% | 1.8 | 100% | < 5.00 | 9.3 µg/mL (≈ 23 µM) | 
8 | Cc1cccc(Oc2ccc3nc(COc4cccc(C(=O)O)c4)n(C)c3c2)c1 | 90 ng/mL | 3.2% | 56.9% | inactive | 7.10 | 76% | 19% | 2.3 | 69% | < 5.00 | 3.8 µg/mL (≈ 9.78 µM) | 
9 | Cc1ccccc1Oc1ccc2nc(COc3cccc(C(=O)O)c3)n(C)c2c1 | 100 ng/mL | 3.7% | 26.9% | inactive | 7.25 | 80% | 16% | 2.4 | 62% | < 5.00 | 2.2 µg/mL (≈ 5.66 µM) | 
10 | Cn1c(COc2cccc(C(=O)O)c2)nc2ccc(Oc3ccc4c(c3)OCC4)cc21 | 360 ng/mL | 4.8% | 41.6% |  | 7.68 | 95% | 12% | 2 | 62% | < 5.00 | 16 µg/mL (≈ 38.4 µM) | remaining at 0.5 h [10]: 79%; Activity (Rattus norvegicus [13]): 69.7%; Activity (Rattus norvegicus [14]): 15.6%; Cmax [15]: 80 ng/mL; Tmax [16]: 3.2 h; AUC at 24 h [17]: 850 ng·h/mL
11 | Cl.Cn1c(COc2cccc(C(=O)O)c2)nc2ccc(Oc3cccc(Cl)c3)cc21 | 190 ng/mL | 2.8% | 59.6% | inactive | 7.07 | 103% | 69% | 2.7 | 90% |  |  | 
12 | COc1ccccc1Oc1ccc2nc(COc3cccc(C(=O)O)c3)n(C)c2c1.Cl |  |  |  | inactive | 6.32 | 60% | 4% | 1.3 | 74% | < 5.00 | 12 µg/mL | 
13 | Cn1c(COc2cccc(C(=O)O)c2)nc2ccc(Oc3ccc(F)cc3)cc21 | 320 ng/mL | 3.4% | 56.7% | inactive | 6.91 | 75% | 29% | 2 |  | < 5.00 | 19 µg/mL (≈ 48.4 µM) | 
14 | Cn1c(COc2cccc(C(=O)O)c2)nc2ccc(Oc3cccc(F)c3)cc21 | 1740 ng/mL | 3.2% | 52.1% | inactive | 6.70 | 75% | 22% | 2 | 98% | < 5.00 | 2.2 µg/mL (≈ 5.61 µM) | 
